Where “and” joins values, the source holds several entries; their conditions need not be identical. Equal entries are not always repeated.
Assays:
[1] = tested on: lysates prepared from tissue fragments of carcinomatous and non-carcinomatous sites (pancreatic cancer resected specimens); experiment: Primary screening: increase in FI of probes mixed with lysates of carcinomatous and non-carcinomatous tissue; format: biochemical, human; settings: lysates from five patients; probe 1.0 μM; 60 minutes, 37° C.; FIG. 1A
Method: First, according to the procedure described in Non Patent Literatures 6 to 8, each of lysates prepared from tissue fragments of carcinomatous and non-carcinomatous sites was mixed with a fluorescent probe, an increased value of fluorescence intensity was measured, and a fluorescent probe as a candidate was selected. Briefly, 5 μL of a lysate (protein concentration: 0.20 mg/dL) was added dropwise to a well of a black 384 plate in which 15 μL of a library of dipeptide-HMRG compounds (Non Patent Literature 8) was arranged. Final concentrations of the candidate probe and the lysate protein were 1.0 μM and 0.050 mg/dL, respectively.
The fluorescence intensity (FI) of each sample was measured at 0 minutes and 60 minutes after mixing with Envision Multilabel Plate Reader (PerkinElmer, Massachusetts, USA) while performing incubation at 37° C. Excitation and emission wavelengths were set to 485 nm and 535 nm, respectively. An increase in FI was defined as follows.
(Increase in FI)=(FI after 60 minutes)−(FI after 0 minutes)
Probes with the top 10% difference or ratio in the increase in FI in the carcinomatous and non-carcinomatous lysates were selected as candidate probes and evaluated as follows.

Human recombinant DPP-IV = molecular target: T1, Human recombinant DPP-IV (Homo sapiens, UniProt P27487); experiment: Target enzyme search: change in FI of probe after adding DPP-IV; format: biochemical; settings: probe 1.0 μM; 2,000 seconds; ex/em 495 nm/525 nm; FIG. 5A
T1 construct: purchased Sigma-Aldrich D 4943
Method: (§1) It was considered that dipeptidyl peptidase 4 (DPP-IV) or a similar enzyme was a target enzyme overexpressed in pancreatic cancer tissue. First, the candidate fluorescent probe was examined whether DPP-IV or the similar enzyme was activated. Human recombinant DPP-IV (50 μL; D 4943, Sigma-Aldrich), DPP-VIII (1.0 μg; ab162872, abcam), and DPP-IX (1.0 μg; ab79621, abcam) were injected into 3.0 mL of a probe solution (1.0 μM) using F-7000 (Hitachi (Tokyo)), and a change in FI during 2,000 seconds was measured. Excitation and emission wavelengths were set to 495 and 525 nm, respectively.

Human recombinant DPP-IX = molecular target: T2, Human recombinant DPP-IX (Homo sapiens, UniProt Q86TI2); experiment: Target enzyme search: change in FI of probe after adding DPP-IX; format: biochemical; settings: probe 1.0 μM; 2,000 seconds; ex/em 495 nm/525 nm; FIG. 5C
T2 construct: purchased abcam ab79621
Method: as §1

[2] = tested on: pancreatic cancer tissue in surgically resected specimen; experiment: Fluorescence imaging of cut surface of surgically resected pancreatic cancer specimens (TBR); format: cell-based, human
Method: Immediately after the pancreatic cancer specimen was extracted, the pancreatic cancer specimen was cut so as to include a maximum diameter of pancreatic cancer tissue. Next, the fluorescent probe described above (4 mL, 50 μM) was directly applied to the cut surface and fluorescence imaging was performed using Maestro in Vivo imaging system as described above. The accuracy of the fluorescence imaging was evaluated by a surgeon (RT) and a pathologist (MT) with reference to histopathological findings on the same plane. In addition, a tumor/background ratio (TBR) was also calculated by measuring the increase in average FI from 1 minute to 30 minutes after probe administration in carcinomatous and non-carcinomatous sites based on macroscopic/microscopic findings of the cut surface and corresponding fluorescence images.

T1 sequence (P27487 whole entry): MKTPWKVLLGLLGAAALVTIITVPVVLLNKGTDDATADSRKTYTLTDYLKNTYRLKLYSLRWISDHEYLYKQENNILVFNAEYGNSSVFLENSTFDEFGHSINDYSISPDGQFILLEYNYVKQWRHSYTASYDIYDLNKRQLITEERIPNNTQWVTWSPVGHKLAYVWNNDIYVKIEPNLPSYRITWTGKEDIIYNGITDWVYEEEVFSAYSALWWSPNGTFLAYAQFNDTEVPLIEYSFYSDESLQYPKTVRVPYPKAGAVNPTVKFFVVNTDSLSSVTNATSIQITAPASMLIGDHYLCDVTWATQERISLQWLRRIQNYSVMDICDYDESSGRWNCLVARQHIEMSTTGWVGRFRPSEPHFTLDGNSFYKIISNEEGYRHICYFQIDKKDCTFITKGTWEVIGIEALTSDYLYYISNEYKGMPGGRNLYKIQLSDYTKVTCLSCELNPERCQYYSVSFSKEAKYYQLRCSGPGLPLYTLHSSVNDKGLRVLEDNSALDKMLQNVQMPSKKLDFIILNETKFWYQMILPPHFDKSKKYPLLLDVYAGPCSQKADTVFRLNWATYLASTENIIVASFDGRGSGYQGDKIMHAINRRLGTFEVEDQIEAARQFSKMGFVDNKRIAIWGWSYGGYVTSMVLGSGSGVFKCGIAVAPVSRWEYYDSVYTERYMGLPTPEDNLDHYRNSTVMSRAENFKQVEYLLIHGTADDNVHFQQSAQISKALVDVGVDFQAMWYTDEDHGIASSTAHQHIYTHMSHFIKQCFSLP
T2 sequence (Q86TI2 whole entry): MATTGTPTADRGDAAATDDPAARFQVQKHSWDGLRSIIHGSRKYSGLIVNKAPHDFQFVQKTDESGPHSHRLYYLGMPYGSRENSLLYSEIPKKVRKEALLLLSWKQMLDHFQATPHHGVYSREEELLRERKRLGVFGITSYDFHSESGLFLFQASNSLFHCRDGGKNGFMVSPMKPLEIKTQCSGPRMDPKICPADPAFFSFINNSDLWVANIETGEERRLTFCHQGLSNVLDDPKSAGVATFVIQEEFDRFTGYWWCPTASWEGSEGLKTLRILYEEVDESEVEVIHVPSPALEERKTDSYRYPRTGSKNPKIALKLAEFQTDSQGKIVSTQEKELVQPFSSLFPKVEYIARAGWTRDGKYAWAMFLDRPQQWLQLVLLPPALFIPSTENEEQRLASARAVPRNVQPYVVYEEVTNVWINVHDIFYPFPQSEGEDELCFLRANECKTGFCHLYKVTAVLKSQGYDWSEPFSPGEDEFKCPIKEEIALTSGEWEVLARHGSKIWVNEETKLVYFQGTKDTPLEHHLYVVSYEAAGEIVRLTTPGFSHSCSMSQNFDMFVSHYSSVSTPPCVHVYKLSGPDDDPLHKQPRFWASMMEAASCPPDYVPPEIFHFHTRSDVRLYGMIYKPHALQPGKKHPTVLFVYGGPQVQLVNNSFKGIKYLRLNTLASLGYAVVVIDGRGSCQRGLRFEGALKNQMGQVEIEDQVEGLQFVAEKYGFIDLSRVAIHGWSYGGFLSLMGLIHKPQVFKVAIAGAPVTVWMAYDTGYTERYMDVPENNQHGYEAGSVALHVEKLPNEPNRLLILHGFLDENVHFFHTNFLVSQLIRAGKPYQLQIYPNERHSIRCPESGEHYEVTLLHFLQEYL

## CC(C)C[C@H](N)C(=O)N1CCC[C@H]1C(=O)Nc1ccc2c(c1)Oc1cc(N)ccc1C21OCc2ccccc21 (stereo partly drawn) [LP-HMRG]
[1]
  increase in FI in carcinomatous tissue as opposed to non-carcinomatous tissue (lysates): significant increase in FI in carcinomatous tissue

## Nc1ccc2c(c1)Oc1cc(NC(=O)[C@@H]3CCCN3C(=O)[C@@H](N)Cc3ccc(O)cc3)ccc1C21OCc2ccccc21 (stereo partly drawn) [YP-HMRG]
[1]
  increase in FI in carcinomatous tissue as opposed to non-carcinomatous tissue (lysates): significant increase in FI in carcinomatous tissue

## NCC(=O)N1CCC[C@H]1C(=O)Nc1ccc2c(c1)Oc1cc(N)ccc1C21OCc2ccccc21 (stereo partly drawn) [GP-HMRG]
Human recombinant DPP-IV
  conversion of probe into fluorescent HMRG in reaction with DPP-IV: converted into a highly fluorescent HMRG
[1]
  increase in FI in carcinomatous tissue as opposed to non-carcinomatous tissue (lysates): significant increase in FI in carcinomatous tissue
Human recombinant DPP-IX
  conversion of probe into fluorescent HMRG in reaction with DPP-IX: converted into a highly fluorescent HMRG
[2]; 30 minutes after spraying, eight patients
  average TBR of the fluorescence images: 1.96 (range, 1.31 to 2.04)
[2]; Patient No. 8, after preoperative chemotherapy, cancer invasion
  TBR in the connective tissue surrounding the splenic artery: 2.04
[2]; Patient No. 8, after preoperative chemotherapy, fibrosis and mucinous changes, few viable cancer cells
  TBR of the main tumor: 1.13
[2]; after topical administration
  time from which increase in fluorescence signal in carcinomatous tissue was confirmed: 1 min
[2]; four of eight patients (Patient Nos. 1, 2, 4 and 5)
  TBR in patients with uniform fluorescence signal of carcinomatous tissue: > 1.9
[2]; one value per patient (Patients 1-8), cut surface, increase in average FI from 1 to 30 minutes, probe 4 mL, 50 μM
  A TBR ratio of FI: 1.98 (2×) and 1.93 and 1.47 and 1.26 and 1.13 and 3.44 and 2.06

## Nc1ccc2c(c1)Oc1cc(NC(=O)[C@@H]3CCCN3C(=O)[C@@H]3CCCN3)ccc1C21OCc2ccccc21 (stereo partly drawn) [PP-HMRG]
[1]
  increase in FI in carcinomatous tissue as opposed to non-carcinomatous tissue (lysates): significant increase in FI in carcinomatous tissue

— patent US20240201189A1, “FLUORESCENT PROBE FOR USE IN DETECTION OF PANCREATIC CANCER” (The University of Tokyo, priority 2021, published 2024)
